Measured values from paper PMC12606464, “Investigating NFE2L1 activators for targeted protein aggregate clearance: a follow-up study” (RSC Medicinal Chemistry, 2025).
Marks after values point to notes of the source that are not given here.

Key:
NFE2L1 pathway = experiment: 3×PSMA4-ARE-LUC dual luciferase reporter assay in HEK293 cells; format: cell-based, human; conditions: Homo sapiens; 5 μM, 16 h, HEK293, luminescence relative to DMSO-treated cells; read-out: NFE2L1 activation [5 μM]
Description: In our previous work,[43] we developed a library of NFE2L1 stimulators using a cell-based luciferase reporter assay. This system was based on three tandem copies of the antioxidant response element (ARE) derived from the NFE2L1 target gene proteasome subunit alpha type-4 (3xPSMA4, PSMA4-ARE-LUC). It was designed to detect the proteasome “bounce-back” response induced by proteasome inhibitors such as MG132 or bortezomib.[22,43,45,46] The reporter assay was adapted to a 384-well format and used to evaluate a new set of RUN compounds designed around the structural framework of the RUN-47 activator. We focused on identifying compounds that increased the 3×PSMA4-ARE-LUC signal (Fig. 1A), while simultaneously assessing cytotoxicity (see the SI, Fig. S2). […] In contrast, thiourea- and urea-containing derivatives generally produced only weak to intermediate responses, rarely exceeding a fold change of 7.
Fig. 1 (A) Targeted library screening of RUN compounds using the 3×PSMA4-ARE-LUC dual reporter assay in HEK293 cells. Cells were exposed to RUN compounds (5 μM) for 16 hours, and luciferase activity was measured. Data are presented as the mean ± SD from three independent experiments (n = 3). Results are shown as a fold change in luminescence relative to DMSO-treated cells. Selected hit compounds are highlighted in distinct colours. (B) RUN-89 specifically activates the NFE2L1 pathway. The DDI2 knockout (KO) and parental (WT) HCT116 cells were transfected with the 3×PSMA4-ARE-LUC reporter and treated with 0.5 μM bortezomib (BTZ) and 5 μM RUN-89 for 16 hours. Data are presented as the Geomean ± GeoSD of three independent experiments (n = 3). Statistical analysis was performed on log2-transformed values using two-way repeated-measures ANOVA followed by Šídak's multiple comparison test. (C) RUN-89 selectively triggers downstream signaling events associated with NFE2L1 gene expression. HEK293 cells were transfected with lipid nanoparticles (LNPs) carrying siRNAs targeting NFE2L1 or NFE2L2. LNPs formulated with non-targeting siRNA served as a negative control. Following 24 hours of incubation, cells were treated with 7.5 μM RUN-89 or DMSO (vehicle) for an additional 16 hours. Expression of the proteasomal subunit gene PSMC4 was then quantified by RT-qPCR. Data are shown as the Geomean ± GeoSD from three independent biological replicates (n = 3). Log2-transformed data were analyzed using two-way repeated-measures ANOVA with the Geisser–Greenhouse correction, followed by Tukey's multiple comparison test with individual variances computed for each comparison. Additional results for NFE2L1, NFE2L2, PSMB7, and PSMD12 are presented in SI Fig. S10.
Figure S1: Concentration–response of luciferase cell-based assay (PSMA4-ARE-luc2P reporter) on treatment with RUN-81, RUN-89, and RUN-94. Concentration is plotted on the X-axis. Dose–response relationships were analyzed using a four-parameter logistic curve (4PL), or a bell-shaped dose-response curve, both with weighting 1/Y^2. Dotted lines represent 95% confidence bands. Calculated EC₅₀ values, curve parameters, and asymmetrical confidence intervals are summarized in the accompanying table . Data are presented as mean ± SD from four independent experiments (n=4).
(§1) 2 Biology Experimental Procedures
(§2) Safety statement: No unexpected or unusually high safety hazards were encountered. […]
Most of the cell lines were cultured in Dulbecco's Modified Eagle Medium (DMEM) enriched with 10% fetal bovine serum (FBS) and 2 mM L-glutamine, under standard conditions of 37 °C with 5% CO₂. DNA transfection was performed with Lipofectamine 2000, following the manufacturer's instructions. Transgenic cells were then selected with either G418 (400 µg/mL) or hygromycin B (450 µg/mL), based on the selection marker encoded by the plasmid used. Cell viability was evaluated using the […]

HEK293 cells = experiment: alamarBlue cytotoxicity assessment in HEK293 cells; format: cell-based, human; conditions: 16 h
Experimental: Figure S2: Concentration-dependent cytotoxicity assessment of RUN compounds.
HEK293 cells were treated for 16 hours with increasing concentrations of RUN compounds (1.25 µM; 2.5 µM; 5; 7.5 and 10 µM) or DMSO (negative control). Cell viability was determined using the alamarBlue assay following the protocol of Riss.(1) Data are presented as means ± SD from three independent experiments (n = 3). Statistical analysis was done using repeated measures one-way ANOVA with Geisser–Greenhouse correction, followed by Dunnett’s multiple comparisons test. *p<0.05. Detailed results of the analysis are shown in […]
(1 picture or pasted object on this page, not shown here)
as §1, §2
Cell lines were sourced from the ATCC (USA) and/or ECACC (UK), namely HCT116 (human colorectal carcinoma), ATCC CCL-247 (RRID:CVCL_0291), HEK-293 (human embryonic kidney), ATCC CRL-1573 (RRID:CVCL_0045), SH-SY5Y (human neuroblastoma), ATCC CRL-2266 (RRID:CVCL_0019). The characteristics of DDI2 knockout cells derived from HCT116 cells have been described previously (Sedlacek et al., 2025). All cell lines were tested for mycoplasma contamination. Most of the cell lines were cultured in Dulbecco's Modified Eagle Medium (DMEM) enriched with 10% fetal bovine serum (FBS) and 2 mM L-glutamine, under standard conditions of 37 °C with 5% CO₂. DNA transfection was performed with Lipofectamine 2000, following the manufacturer's instructions. Transgenic cells were then selected with either G418 (400 µg/mL) or hygromycin B (450 µg/mL), based on the selection marker encoded by the plasmid used. […]

[1] = HEK293, alamarBlue, concentration not given

Compound | fold induction at 5 µM (NFE2L1 pathway) | Tox [% of ctrl.] (HEK293 cells; [1]) | Tox [% of ctrl.] (HEK293 cells; human)
COc1ccc(/C=C2\CN(C(=S)Nc3cccnc3)C/C(=C\c3ccc(OC)c(OC)c3)C2=O)cc1OC [RUN-73] | 1.9 | 84% of ctrl. | –
CCOC(=O)CNC(=O)N1C/C(=C\c2ccc(OC)c(OC)c2)C(=O)/C(=C/c2ccc(OC)c(OC)c2)C1 [RUN-74] | 7.1 | 81% of ctrl. | –
CCOC(=O)CCNC(=O)N1C/C(=C\c2ccc(OC)c(OC)c2)C(=O)/C(=C/c2ccc(OC)c(OC)c2)C1 [RUN-75] | 6.8 | 82% of ctrl. | –
COc1cccc(NC(=O)N2C/C(=C\c3ccc(OC)c(OC)c3)C(=O)/C(=C/c3ccc(OC)c(OC)c3)C2)c1 [RUN-76] | 6.8 | 88% of ctrl. | –
COc1ccc(/C=C2\CN(C(=S)NCCN3CCOCC3)C/C(=C\c3ccc(OC)c(OC)c3)C2=O)cc1OC [RUN-77] | 2.5 | 84% of ctrl. | –
COc1ccc(/C=C2/C(=O)/C(=C/c3ccc(OC)c(OC)c3)C3CCC2N3)cc1OC [RUN-78] | 1.4 | – | 89% of ctrl.
COc1ccc(/C=C2/C(=O)/C(=C/c3ccc(OC)c(OC)c3)C3CCC2N3CCN2CCOCC2)cc1OC [RUN-79] | 0.9 | – | 104% of ctrl.
COc1ccc(/C=C2/C(=O)/C(=C/c3ccc(OC)c(OC)c3)C3CCC2N3Cc2ccc(C#N)cc2)cc1OC [RUN-80] | 2 | – | 98% of ctrl.
COCCOCCOCC(=O)N1C/C(=C\c2ccc(OC)c(OC)c2)C(=O)/C(=C/c2ccc(OC)c(OC)c2)C1 [RUN-82] | 3.2 | 85% of ctrl. | –
COc1ccc(/C=C2\CN(C(=O)C34CCN(CC3)CC4)C/C(=C\c3ccc(OC)c(OC)c3)C2=O)cc1OC [RUN-83] | 1.5 | – | 87% of ctrl.
COc1ccc(/C=C2\CN(C(=O)CN)C/C(=C\c3ccc(OC)c(OC)c3)C2=O)cc1OC [RUN-85] | 2.7 | – | –
COc1ccc(/C=C2\CC(NC(=O)CN(C)C)C/C(=C\c3ccc(OC)c(OC)c3)C2=O)cc1OC.O=C(O)C(F)(F)F (stereo not shown) [RUN-86] | 2 | 96% of ctrl. | –
COc1ccc(/C=C2\CC(NC(=O)C34CCN(CC3)CC4)C/C(=C\c3ccc(OC)c(OC)c3)C2=O)cc1OC (stereo not shown) [RUN-87] | 1 | – | 101% of ctrl.
COCCOCCOCC(=O)NC1C/C(=C\c2ccc(OC)c(OC)c2)C(=O)/C(=C/c2ccc(OC)c(OC)c2)C1 (stereo not shown) [RUN-88] | 3.9 | 86% of ctrl. | –
COc1ccc(/C=C2\CC(NC(=O)CN3CCN(C)CC3)C/C(=C\c3ccc(OC)c(OC)c3)C2=O)cc1OC (stereo not shown) [RUN-90] | 2.8 | 87% of ctrl. | –
COc1ccc(/C=C2\CC(NC(=O)CCCN(C)C)C/C(=C\c3ccc(OC)c(OC)c3)C2=O)cc1OC (stereo not shown) [RUN-91] | 1.6 | 95% of ctrl. | –
COc1ccc(/C=C2\CC(NC(=O)CN)C/C(=C\c3ccc(OC)c(OC)c3)C2=O)cc1OC.O=C(O)C(F)(F)F (stereo not shown) [RUN-92] | 1.6 | 90% of ctrl. | –

Compound | fold induction at 5 µM (NFE2L1 pathway) | Tox [% of ctrl.] (HEK293 cells; [1]) | Tox [% of ctrl.] (HEK293 cells; human)
COc1ccc(/C=C2\CC(NC(=O)c3ncccc3C)C/C(=C\c3ccc(OC)c(OC)c3)C2=O)cc1OC (stereo not shown) [RUN-93] | 11.9 | 75% of ctrl. | –
COc1ccc(/C=C2\CC(NC(=O)Cc3c[nH]cn3)C/C(=C\c3ccc(OC)c(OC)c3)C2=O)cc1OC (stereo not shown) [RUN-95] | 2 | 96% of ctrl. | –
COc1ccc(/C=C2\CC(NC(=O)[C@@H]3CCCN3)C/C(=C\c3ccc(OC)c(OC)c3)C2=O)cc1OC.O=C(O)C(F)(F)F (stereo partly shown) [RUN-96] | 2.2 | 93% of ctrl. | –
COc1ccc(/C=C2\CC(NC(=O)C3CCC(=O)N3)C/C(=C\c3ccc(OC)c(OC)c3)C2=O)cc1OC (stereo not shown) [RUN-97] | 1.6 | 99% of ctrl. | –
COc1ccc(/C=C2\CC(NC(=O)CN3CCOCC3)C/C(=C\c3ccc(OC)c(OC)c3)C2=O)cc1OC.O=C(O)C(F)(F)F (stereo not shown) [RUN-98] | 2.1 | 102% of ctrl. | –
COc1ccc(/C=C2\CC(NC(=O)Cn3ccnc3)C/C(=C\c3ccc(OC)c(OC)c3)C2=O)cc1OC (stereo not shown) [RUN-99] | 1.6 | 103% of ctrl. | –
COc1ccc(/C=C2\CC(NC(=O)CCCN)C/C(=C\c3ccc(OC)c(OC)c3)C2=O)cc1OC.O=C(O)C(F)(F)F (stereo not shown) [RUN-100] | 1.2 | 100% of ctrl. | –
COc1ccc(/C=C2\CC(NC(=O)CCN(C)C)C/C(=C\c3ccc(OC)c(OC)c3)C2=O)cc1OC (stereo not shown) [RUN-101] | 2 | 97% of ctrl. | –
CCN(CC)CC(=O)NC1C/C(=C\c2ccc(OC)c(OC)c2)C(=O)/C(=C/c2ccc(OC)c(OC)c2)C1 (stereo not shown) [RUN-102] | 1.3 | 96% of ctrl. | –
COc1ccc(/C=C2\CN(C(=O)C3CCCC3)C/C(=C\c3ccc(OC)c(OC)c3)C2=O)cc1OC [RUN-103] | 9.4 | 80% of ctrl. | –
COc1ccc(/C=C2\CC(NC(=O)CCN)C/C(=C\c3ccc(OC)c(OC)c3)C2=O)cc1OC (stereo not shown) [RUN-104] | 0.8 | 105% of ctrl. | –
COc1ccc(/C=C2\CN(C(=O)CN3CCN(C)CC3)C/C(=C\c3ccc(OC)c(OC)c3)C2=O)cc1OC [RUN-105] | 4.5 | 78% of ctrl. | –
COc1ccc(/C=C2\CN(C(=O)CCCN(C)C)C/C(=C\c3ccc(OC)c(OC)c3)C2=O)cc1OC.O=C(O)C(F)(F)F [RUN-106] | 2.8 | 75% of ctrl. | –
COc1ccc(/C=C2\CN(C(=O)c3ncccc3C)C/C(=C\c3ccc(OC)c(OC)c3)C2=O)cc1OC [RUN-107] | 5 | 73%* % of ctrl. | –
COc1ccc(/C=C2\CN(C(=O)c3ccccn3)C/C(=C\c3ccc(OC)c(OC)c3)C2=O)cc1OC [RUN-108] | 0.9 | 83% of ctrl. | –
COc1ccc(/C=C2\CN(C(=O)Cc3c[nH]cn3)C/C(=C\c3ccc(OC)c(OC)c3)C2=O)cc1OC [RUN-109] | 4.3 | 78% of ctrl. | –
COc1ccc(/C=C2\CN(C(=O)[C@@H]3CCC(=O)N3)C/C(=C\c3ccc(OC)c(OC)c3)C2=O)cc1OC [RUN-110] | 1.8 | 85% of ctrl. | –
